Data on one compound can be found in patent US11179348B2, “Combination comprising pterostilbene for the treatment of cancer” (FUNDACIÓN UNIVERSIDAD CATÓLICA DE VALENCIA SAN VICENTE …, priority 2015, dated 2021).

For this test, the system named is SK-OV-3 cells. Briefly: GSH levels and glutathione- and oxidative stress-related enzyme activities in SK-OV-3 cells growing in vivo. Also on record: species or system human. The note with it: SK-OV-3, in vivo Pter, day 49. As for the experimental part: To measure enzyme activity, isolated tumor cells were homogenized in 0.1 M phosphate buffer (pH 7.2) at 4° C. GCL and GSS activities were measured as described previously (Obrador, E. et al. Hepatology 35, 74-81 (2002)). GPX (selenium dependent) activity was measured as described by Flohé and Gunzler (Flohe, L. & Gunzler, W. A. Methods Enzymol 105, 114-121 (1984)) using H2O2 as a substrate. GSR activity was determined as described by Akerboom and Sies (Akerboom, T. P. et al, Bull Eur Physiopathol Respir 17 Suppl, 221-227 (1981)). GGT activity was measured as described previously (Obrador, E. et al. Hepatology 35, 74-81 (2002)). GST activity was measured using an assay kit from Sigma. TXNRD activity, defined by the concentration of sodium-lipoate (disulfide) reduced to dehydrolipoate (dithiol) per milligram protein, was measured as previously described (Javvadi, P. et al. Cancer Res 70, 1941-1950 (2010)). SOD activity was measured as described by Flohé and Otting (Flohe, L. & Otting, F. Methods Enzymol 105, 93-104 (1984).) using 2 mM cyanide in the assay medium to distinguish mangano-type enzyme (SOD2) from the cuprozinc type (SOD1). CAT activity was analyzed as described by Aebi (Aebi, H. Methods Enzymol 105, 121-126 (1984)). NOX activity was measured by chemiluminescence following the methodology of Wind et al. (Wind, S. et al. Comparative pharmacology of chemically distinct NADPH oxidase inhibitors. Br J Pharmacol 161, 885-898 (2010)). Protein concentration was determined with the Pierce BCA protein assay (Fisher Scientific, Waltham, Mass.).
GSH, GSSG, NADP^+ and NADPH Determination.
GSH and GSSG were determined, following procedures previously described (Obrador, E. et al. PLoS One 9, e96466 (2014)), by LC/MS using the same equipment described above for pterostilbene determination. Cell processing was performed according to published methodology, where rapid N-ethylmaleimide derivatization was used to prevent GSH auto-oxidation (Asensi, M. et al. Anal Biochem 217, 323-328 (1994)). NADP^+ and NADPH were quantitated using an assay kit from Sigma (St. Louis, Mo.).
Isolation of Tumor Cells from Mouse Xenografts Using Enzymatic Digestion and a double Ficoll gradient.
To maximize the amount of isolated cells, avoiding the use of RFP-transfected cells and subsequent laser microdissection, an alternative methodology was set up. To maximize cell yield and viability the following combination of enzymes was used: collagenase III (200 U/ml; Sigma-Aldrich), DNase I (200 U/ml; Sigma-Aldrich) and trypsin (5 mg/ml; Invitrogen), and a non-enzymatic dissociation buffer (NEDB, Invitrogen). Briefly, mice were killed, and tumors were removed (avoiding skin, muscle and fat) into cold culture media and processed immediately. The tumors were minced into 1-3 mm fragments, which were then incubated with the dissociation solution (see above) for 30 min at 37° C. The tumor fragments were mixed up and down every 10 min using a […] micropipette with a tip cut to a diameter adapted to tissue fragment size. After each incubation period, the fragments were filtered through a […] nylon mesh cell strainer (BD Biosciences, San Diego, Calif., USA). The released cells were centrifuged at 1200 r.p.m. for 2 min and stored in cold CO2-independent medium with 30% FCS at […]. Fresh dissociation solution was added to the remaining tissue fragments for 30 min. Dissociation was stopped when no additional cells were released. The fragments were pushed through a sieve and all cells from all incubation periods were pooled and counted.
The dissociated cells were layered onto a double Ficoll gradient (Histopaque; Sigma-Aldrich; densities 1.077 and 1.119) and spun at 700 g for 30 min at room temperature. Cells removed from both interfaces were pooled and washed two times in CO2-independent medium and stored at 4° C. Debris and red blood cell elimination was improved with the dual-density gradient. […]

Molecules are shown by their SMILES.

Take `COc1cc(/C=C/c2ccc(O)cc2)cc(OC)c1` [Pter, trans-3,5-dimethoxy-4′-hydroxystilbene]: the CAT was 1.8 ± 0.4 mU/10^6 cells, the GCL stood at 18 ± 6 mU/10^6 cells, the GSH is on record as 1.5 ± 0.7 nmol/10^6 cells and the GSS amounted to 1.6 ± 0.4 mU/10^6 cells. Besides, the GSSG turned out to be 0.2 ± 0.05 nmol/10^6 cells, the SOD1 was determined as 0.1 ± 0.03 U/10^6 cells and the SOD2 came to 0.01 ± 0.005 U/10^6 cells.
